Experimental data taken from article PMC3694096, “Development of Novel In Vivo Chemical Probes to Address CNS Protein Kinase Involvement in Synaptic Dysfunction” (PLoS ONE, 2013).
Read-outs that look alike come from different tables or passages of the source.

Assays:
Test in all cases: Kinome profiler screen
Format in all cases: biochemical
Lck activated = biological target: T1, Lck activated (Homo sapiens, UniProt P06239); settings: at 20,000 nM inhibitor; kinase activity remaining
T1 construct: purchased Millipore KinaseProfiler

MST2 = biological target: T2, MST2 (Homo sapiens, UniProt Q13188); settings: at 20,000 nM inhibitor; kinase activity remaining
T2 construct: purchased Millipore KinaseProfiler

Lyn(m) = biological target: T3, Lyn(m) (Mus musculus, UniProt P25911); settings: at 20,000 nM inhibitor; kinase activity remaining
T3 construct: purchased Millipore KinaseProfiler

Pyk2 = biological target: T4, Pyk2 (Homo sapiens, UniProt Q14289); settings: at 20,000 nM inhibitor; kinase activity remaining
T4 construct: purchased Millipore KinaseProfiler

PTK5 = biological target: T5, PTK5 (Homo sapiens, UniProt P42685); settings: at 20,000 nM inhibitor; kinase activity remaining
T5 construct: purchased Millipore KinaseProfiler

GRK5 = biological target: T6, GRK5 (Homo sapiens, UniProt P34947)
T6 construct: purchased Millipore KinaseProfiler

Tec(h) activated = biological target: T7, Tec(h) activated (Homo sapiens, UniProt P42680); settings: at 20,000 nM inhibitor; kinase activity remaining
T7 construct: purchased Millipore KinaseProfiler

EGFR(L858R) = biological target: T8, EGFR(L858R) (Homo sapiens, UniProt P00533, L858R); settings: at 20,000 nM inhibitor; kinase activity remaining
T8 construct: purchased Millipore KinaseProfiler

CDK1/cyclinB = biological target: T9, CDK1/cyclinB (Homo sapiens, UniProt P06493); settings: at 20,000 nM inhibitor; kinase activity remaining
T9 construct: purchased Millipore KinaseProfiler

HIPK2 = biological target: T10, HIPK2 (Homo sapiens, UniProt Q9H2X6); settings: at 20,000 nM inhibitor; kinase activity remaining
T10 construct: purchased Millipore KinaseProfiler

ARK5 = biological target: T11, ARK5 (Homo sapiens, UniProt O60285); settings: at 20,000 nM inhibitor; kinase activity remaining
T11 construct: purchased Millipore KinaseProfiler

PASK = biological target: T12, PASK (Homo sapiens, UniProt Q96RG2); settings: at 20,000 nM inhibitor; kinase activity remaining
T12 construct: purchased Millipore KinaseProfiler

PKCι = biological target: T13, PKCι (Homo sapiens, UniProt P41743); settings: at 20,000 nM inhibitor; kinase activity remaining
T13 construct: purchased Millipore KinaseProfiler

Fes = biological target: T14, Fes (Homo sapiens, UniProt P07332); settings: at 20,000 nM inhibitor; kinase activity remaining
T14 construct: purchased Millipore KinaseProfiler

PIP4K2α = biological target: T15, PIP4K2α (Homo sapiens, UniProt P48426); settings: at 20,000 nM inhibitor; kinase activity remaining
T15 construct: purchased Millipore KinaseProfiler

FGFR4 = biological target: T16, FGFR4 (Homo sapiens, UniProt P22455); settings: at 20,000 nM inhibitor; kinase activity remaining
T16 construct: purchased Millipore KinaseProfiler

HIPK1 = biological target: T17, HIPK1 (Homo sapiens, UniProt Q86Z02); settings: at 20,000 nM inhibitor; kinase activity remaining
T17 construct: purchased Millipore KinaseProfiler

IRR = biological target: T18, IRR (Homo sapiens, UniProt P14616); settings: at 20,000 nM inhibitor; kinase activity remaining
T18 construct: purchased Millipore KinaseProfiler

FGFR1(V561M) = biological target: T19, FGFR1(V561M) (Homo sapiens, UniProt P11362, V561M); settings: at 20,000 nM inhibitor; kinase activity remaining
T19 construct: purchased Millipore KinaseProfiler

Lck = biological target: T20, Lck (Homo sapiens, UniProt P06239); settings: at 20,000 nM inhibitor; kinase activity remaining
T20 construct: purchased Millipore KinaseProfiler

WNK3 = biological target: T21, WNK3 (Homo sapiens, UniProt Q9BYP7); settings: at 20,000 nM inhibitor; kinase activity remaining
T21 construct: purchased Millipore KinaseProfiler

MSK1 = biological target: T22, MSK1 (Homo sapiens, UniProt O75582); settings: at 20,000 nM inhibitor; kinase activity remaining
T22 construct: purchased Millipore KinaseProfiler

IGF-1R, activated = biological target: T23, IGF-1R, activated (Homo sapiens, UniProt P08069); settings: at 20,000 nM inhibitor; kinase activity remaining
T23 construct: purchased Millipore KinaseProfiler

Hck activated = biological target: T24, Hck activated (Homo sapiens, UniProt P08631); settings: at 20,000 nM inhibitor; kinase activity remaining
T24 construct: purchased Millipore KinaseProfiler

PAK5 = biological target: T25, PAK5 (Homo sapiens, UniProt Q9P286); settings: at 20,000 nM inhibitor; kinase activity remaining
T25 construct: purchased Millipore KinaseProfiler

EphA8 = biological target: T26, EphA8 (Homo sapiens, UniProt P29322); settings: at 20,000 nM inhibitor; kinase activity remaining
T26 construct: purchased Millipore KinaseProfiler

Arg = biological target: T27, Arg (Homo sapiens, UniProt P42684); settings: at 20,000 nM inhibitor; kinase activity remaining
T27 construct: purchased Millipore KinaseProfiler

EphA4 = biological target: T28, EphA4 (Homo sapiens, UniProt P54764); settings: at 20,000 nM inhibitor; kinase activity remaining
T28 construct: purchased Millipore KinaseProfiler

Rsk1 = biological target: T29, Rsk1 (Homo sapiens, UniProt Q15418); settings: at 20,000 nM inhibitor; kinase activity remaining
T29 construct: purchased Millipore KinaseProfiler

GSK3β = biological target: T30, GSK3β (Homo sapiens, UniProt P49841); settings: at 20,000 nM inhibitor; kinase activity remaining
T30 construct: purchased Millipore KinaseProfiler

BTK = biological target: T31, BTK (Homo sapiens, UniProt Q06187); settings: at 20,000 nM inhibitor; kinase activity remaining
T31 construct: purchased Millipore KinaseProfiler

NEK11 = biological target: T32, NEK11 (Homo sapiens, UniProt Q8NG66); settings: at 20,000 nM inhibitor; kinase activity remaining
T32 construct: purchased Millipore KinaseProfiler

PDGFRα = biological target: T33, PDGFRα (Homo sapiens, UniProt P16234); settings: at 20,000 nM inhibitor; kinase activity remaining
T33 construct: purchased Millipore KinaseProfiler

PKA = biological target: T34, PKA (Homo sapiens, UniProt P17612); settings: at 20,000 nM inhibitor; kinase activity remaining
T34 construct: purchased Millipore KinaseProfiler

NEK6 = biological target: T35, NEK6 (Homo sapiens, UniProt Q9HC98); settings: at 20,000 nM inhibitor; kinase activity remaining
T35 construct: purchased Millipore KinaseProfiler

[1] = biological target: T36, PI3 Kinase (p110 β/p85α)(m) (Mus musculus, UniProt Q8BTI9); settings: at 20,000 nM inhibitor; kinase activity remaining
T36 construct: purchased Millipore KinaseProfiler

TSSK2 = biological target: T37, TSSK2 (Homo sapiens, UniProt Q96PF2); settings: at 20,000 nM inhibitor; kinase activity remaining
T37 construct: purchased Millipore KinaseProfiler

Met(Y1248D) = biological target: T38, Met(Y1248D) (Homo sapiens, UniProt P08581, Y1230D); settings: at 20,000 nM inhibitor; kinase activity remaining
T38 construct: purchased Millipore KinaseProfiler

cKit(V654A) = biological target: T39, cKit(V654A) (Homo sapiens, UniProt P10721, V654A); settings: at 20,000 nM inhibitor; kinase activity remaining
T39 construct: purchased Millipore KinaseProfiler

TrkA = biological target: T40, TrkA (Homo sapiens, UniProt P04629)
T40 construct: purchased Millipore KinaseProfiler

CK1δ = biological target: T41, CK1δ (Homo sapiens, UniProt P48730)
T41 construct: purchased Millipore

CaMKIδ = biological target: T42, CaMKIδ (Homo sapiens, UniProt Q8IU85); settings: at 20,000 nM inhibitor; kinase activity remaining
T42 construct: purchased Millipore KinaseProfiler

Arg(m) = biological target: T43, Arg(m) (Mus musculus, UniProt Q4JIM5); settings: at 20,000 nM inhibitor; kinase activity remaining
T43 construct: purchased Millipore KinaseProfiler

MAPKAP-K2 = biological target: T44, MAPKAP-K2 (Homo sapiens, UniProt P49137); settings: at 20,000 nM inhibitor; kinase activity remaining
T44 construct: purchased Millipore KinaseProfiler

[2] = at 20,000 nM inhibitor, kinase activity remaining, read-out: % Activity

T15 sequence (P48426 whole entry): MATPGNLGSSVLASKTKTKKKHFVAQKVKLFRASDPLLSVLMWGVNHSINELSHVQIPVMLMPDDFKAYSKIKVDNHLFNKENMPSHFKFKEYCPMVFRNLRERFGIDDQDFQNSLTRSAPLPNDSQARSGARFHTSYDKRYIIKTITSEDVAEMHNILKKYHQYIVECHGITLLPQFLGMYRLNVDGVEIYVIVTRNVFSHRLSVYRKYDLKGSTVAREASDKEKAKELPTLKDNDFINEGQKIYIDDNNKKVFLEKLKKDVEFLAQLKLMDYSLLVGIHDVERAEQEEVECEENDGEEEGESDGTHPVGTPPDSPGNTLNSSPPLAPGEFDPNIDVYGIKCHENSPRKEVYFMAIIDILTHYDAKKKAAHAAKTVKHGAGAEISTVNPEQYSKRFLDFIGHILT
T35 sequence (Q9HC98 whole entry): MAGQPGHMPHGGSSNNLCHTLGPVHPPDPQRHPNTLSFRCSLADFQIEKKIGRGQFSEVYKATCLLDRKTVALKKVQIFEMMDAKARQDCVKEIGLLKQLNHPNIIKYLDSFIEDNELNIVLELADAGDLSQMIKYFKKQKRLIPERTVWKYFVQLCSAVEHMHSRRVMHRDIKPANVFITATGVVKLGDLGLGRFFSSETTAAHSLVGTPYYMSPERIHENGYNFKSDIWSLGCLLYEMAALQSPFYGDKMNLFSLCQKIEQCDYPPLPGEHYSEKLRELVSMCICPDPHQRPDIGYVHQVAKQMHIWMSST
T14 sequence (P07332 whole entry): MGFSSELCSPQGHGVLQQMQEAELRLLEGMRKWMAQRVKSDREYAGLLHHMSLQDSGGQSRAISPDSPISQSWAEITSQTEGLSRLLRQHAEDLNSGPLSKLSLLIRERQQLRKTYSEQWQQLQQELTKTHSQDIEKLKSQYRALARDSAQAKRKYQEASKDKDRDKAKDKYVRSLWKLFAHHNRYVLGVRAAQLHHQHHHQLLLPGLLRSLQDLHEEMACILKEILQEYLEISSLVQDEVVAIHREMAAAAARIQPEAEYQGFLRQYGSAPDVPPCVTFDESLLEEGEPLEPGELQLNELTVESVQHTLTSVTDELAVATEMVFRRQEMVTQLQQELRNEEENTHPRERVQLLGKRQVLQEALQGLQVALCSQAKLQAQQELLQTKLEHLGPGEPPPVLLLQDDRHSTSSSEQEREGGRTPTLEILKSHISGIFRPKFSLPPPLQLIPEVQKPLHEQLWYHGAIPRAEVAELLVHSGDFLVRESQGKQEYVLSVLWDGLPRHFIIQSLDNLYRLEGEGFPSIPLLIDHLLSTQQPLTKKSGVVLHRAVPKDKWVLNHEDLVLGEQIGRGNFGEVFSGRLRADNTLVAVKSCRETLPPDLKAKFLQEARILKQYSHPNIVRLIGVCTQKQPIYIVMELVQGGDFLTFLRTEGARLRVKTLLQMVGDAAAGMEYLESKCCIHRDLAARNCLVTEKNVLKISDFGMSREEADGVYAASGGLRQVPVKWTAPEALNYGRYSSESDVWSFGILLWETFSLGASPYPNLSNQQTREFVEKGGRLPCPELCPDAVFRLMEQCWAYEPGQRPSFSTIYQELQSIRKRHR
T1 sequence (P06239 whole entry): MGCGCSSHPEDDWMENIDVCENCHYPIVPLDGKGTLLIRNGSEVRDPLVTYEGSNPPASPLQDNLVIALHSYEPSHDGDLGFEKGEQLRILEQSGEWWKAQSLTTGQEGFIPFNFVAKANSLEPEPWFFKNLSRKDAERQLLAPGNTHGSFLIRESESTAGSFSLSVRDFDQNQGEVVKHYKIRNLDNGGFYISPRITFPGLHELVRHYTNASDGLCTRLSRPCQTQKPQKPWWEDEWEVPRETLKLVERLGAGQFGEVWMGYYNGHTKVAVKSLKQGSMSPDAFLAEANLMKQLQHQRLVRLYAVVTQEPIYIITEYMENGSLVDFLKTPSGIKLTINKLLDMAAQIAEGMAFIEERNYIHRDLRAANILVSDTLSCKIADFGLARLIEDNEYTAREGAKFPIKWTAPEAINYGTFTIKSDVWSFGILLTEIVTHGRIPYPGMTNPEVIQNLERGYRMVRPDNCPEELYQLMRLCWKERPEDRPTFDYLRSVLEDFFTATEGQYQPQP
T20 sequence (P06239 whole entry): as above
T41 sequence (P48730 whole entry): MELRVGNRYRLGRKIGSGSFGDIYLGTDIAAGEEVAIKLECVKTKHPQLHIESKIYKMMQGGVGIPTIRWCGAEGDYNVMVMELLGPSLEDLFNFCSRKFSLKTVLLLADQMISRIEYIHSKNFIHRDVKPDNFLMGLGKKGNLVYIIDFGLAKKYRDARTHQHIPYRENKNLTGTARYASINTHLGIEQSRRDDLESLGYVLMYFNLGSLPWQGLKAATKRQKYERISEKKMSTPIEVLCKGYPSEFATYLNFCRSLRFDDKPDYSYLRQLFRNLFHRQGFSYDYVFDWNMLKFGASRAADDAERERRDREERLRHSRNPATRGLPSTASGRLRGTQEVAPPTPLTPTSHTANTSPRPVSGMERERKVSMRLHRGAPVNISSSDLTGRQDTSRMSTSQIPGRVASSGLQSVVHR
T29 sequence (Q15418 whole entry): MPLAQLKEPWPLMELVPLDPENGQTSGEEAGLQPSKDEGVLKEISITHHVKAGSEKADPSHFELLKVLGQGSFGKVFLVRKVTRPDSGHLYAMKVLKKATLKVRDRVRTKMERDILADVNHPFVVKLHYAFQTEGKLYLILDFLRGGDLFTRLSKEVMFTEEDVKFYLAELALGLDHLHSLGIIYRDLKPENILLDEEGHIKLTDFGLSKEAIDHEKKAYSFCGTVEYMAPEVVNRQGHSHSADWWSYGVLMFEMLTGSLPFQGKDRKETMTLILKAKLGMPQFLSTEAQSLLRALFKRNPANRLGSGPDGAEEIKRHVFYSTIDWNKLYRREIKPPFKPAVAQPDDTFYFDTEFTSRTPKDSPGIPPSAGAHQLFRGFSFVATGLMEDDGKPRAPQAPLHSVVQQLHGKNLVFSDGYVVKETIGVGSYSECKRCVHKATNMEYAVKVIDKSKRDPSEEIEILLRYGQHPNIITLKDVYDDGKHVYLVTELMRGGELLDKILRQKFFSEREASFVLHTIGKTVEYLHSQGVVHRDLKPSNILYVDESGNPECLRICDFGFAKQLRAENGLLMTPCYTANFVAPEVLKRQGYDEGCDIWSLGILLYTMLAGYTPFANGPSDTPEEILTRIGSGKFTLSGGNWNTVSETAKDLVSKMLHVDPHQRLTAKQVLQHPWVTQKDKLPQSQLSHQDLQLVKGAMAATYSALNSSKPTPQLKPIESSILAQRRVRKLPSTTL
T17 sequence (Q86Z02 whole entry): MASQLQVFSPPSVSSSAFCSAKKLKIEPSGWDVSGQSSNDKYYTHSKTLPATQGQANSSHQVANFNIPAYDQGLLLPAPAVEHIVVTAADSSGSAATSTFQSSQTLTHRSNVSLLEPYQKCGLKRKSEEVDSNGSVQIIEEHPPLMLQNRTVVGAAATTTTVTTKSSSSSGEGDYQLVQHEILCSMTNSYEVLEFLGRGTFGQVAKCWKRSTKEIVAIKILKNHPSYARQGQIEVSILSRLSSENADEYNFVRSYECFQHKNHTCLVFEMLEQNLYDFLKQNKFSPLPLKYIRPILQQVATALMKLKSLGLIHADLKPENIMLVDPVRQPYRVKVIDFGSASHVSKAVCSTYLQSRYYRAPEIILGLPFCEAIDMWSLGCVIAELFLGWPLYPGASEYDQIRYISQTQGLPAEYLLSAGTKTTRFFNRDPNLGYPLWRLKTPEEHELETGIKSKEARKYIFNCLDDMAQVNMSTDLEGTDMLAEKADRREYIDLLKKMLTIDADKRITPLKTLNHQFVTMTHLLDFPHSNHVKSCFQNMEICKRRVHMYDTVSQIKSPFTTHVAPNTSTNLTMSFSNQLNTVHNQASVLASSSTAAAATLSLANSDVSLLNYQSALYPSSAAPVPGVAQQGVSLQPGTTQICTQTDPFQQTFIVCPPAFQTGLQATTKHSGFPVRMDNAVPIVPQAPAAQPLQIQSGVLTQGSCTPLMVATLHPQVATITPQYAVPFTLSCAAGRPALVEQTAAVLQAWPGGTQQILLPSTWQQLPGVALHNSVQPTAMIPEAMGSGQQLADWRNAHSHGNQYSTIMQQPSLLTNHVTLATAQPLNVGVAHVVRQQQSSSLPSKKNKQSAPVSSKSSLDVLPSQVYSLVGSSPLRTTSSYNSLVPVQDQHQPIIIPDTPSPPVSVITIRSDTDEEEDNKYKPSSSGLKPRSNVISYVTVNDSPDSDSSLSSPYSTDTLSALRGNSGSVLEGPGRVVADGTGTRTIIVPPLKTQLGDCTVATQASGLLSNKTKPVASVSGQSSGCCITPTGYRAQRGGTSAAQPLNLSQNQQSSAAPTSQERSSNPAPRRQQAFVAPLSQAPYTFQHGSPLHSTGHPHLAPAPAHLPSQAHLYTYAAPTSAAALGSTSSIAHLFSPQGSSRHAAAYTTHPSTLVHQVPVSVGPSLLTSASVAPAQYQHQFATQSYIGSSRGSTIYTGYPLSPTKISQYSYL
T42 sequence (Q8IU85 whole entry): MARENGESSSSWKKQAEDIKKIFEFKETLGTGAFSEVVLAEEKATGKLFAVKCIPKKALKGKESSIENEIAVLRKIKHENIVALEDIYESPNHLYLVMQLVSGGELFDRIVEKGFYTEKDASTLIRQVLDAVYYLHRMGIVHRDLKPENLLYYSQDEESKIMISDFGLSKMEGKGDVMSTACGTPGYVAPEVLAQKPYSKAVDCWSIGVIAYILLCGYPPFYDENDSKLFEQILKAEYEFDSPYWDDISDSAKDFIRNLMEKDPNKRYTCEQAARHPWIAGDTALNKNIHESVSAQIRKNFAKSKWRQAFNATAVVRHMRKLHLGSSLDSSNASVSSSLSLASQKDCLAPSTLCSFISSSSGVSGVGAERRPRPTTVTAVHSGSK

## CN(C)c1cc(-c2ccncc2)c(-c2cccc3ccccc23)nn1 [MW181, N,N-dimethyl-6-(naphthalen-1-yl)-5-(pyridin-4-yl)pyridazin-3-amine]
Lck activated
  activity at 20 µM: 84%
MST2
  activity at 20 µM: 105%
Lyn(m)
  activity at 20 µM: 90%
Pyk2
  activity at 20 µM: 101%
PTK5
  activity at 20 µM: 90%
GRK5; [2]
  activity at 20 µM: 100%
Tec(h) activated
  activity at 20 µM: 98%
EGFR(L858R)
  activity at 20 µM: 78%
CDK1/cyclinB
  activity at 20 µM: 113%
HIPK2
  activity at 20 µM: 102%
ARK5
  activity at 20 µM: 103%
PASK
  activity at 20 µM: 97%
PKCι
  activity at 20 µM: 82%
Fes
  activity at 20 µM: 100%
PIP4K2α
  activity at 20 µM: 97%
FGFR4
  activity at 20 µM: 98%
HIPK1
  activity at 20 µM: 107%
IRR
  activity at 20 µM: 108%
FGFR1(V561M)
  activity at 20 µM: 93%
Lck
  activity at 20 µM: 89%
WNK3
  activity at 20 µM: 89%
MSK1
  activity at 20 µM: 106%
IGF-1R, activated
  activity at 20 µM: 87%
Hck activated
  activity at 20 µM: 106%
PAK5
  activity at 20 µM: 104%
EphA8
  activity at 20 µM: 91%
Arg
  activity at 20 µM: 84%
EphA4
  activity at 20 µM: 110%
Rsk1
  activity at 20 µM: 98%
GSK3β
  activity at 20 µM: 92%
BTK
  activity at 20 µM: 98%
NEK11
  activity at 20 µM: 121%
PDGFRα
  activity at 20 µM: 103%
PKA
  activity at 20 µM: 142%
NEK6
  activity at 20 µM: 92%
[1]
  activity at 20 µM: 101%
TSSK2
  activity at 20 µM: 107%
Met(Y1248D)
  activity at 20 µM: 94%
cKit(V654A)
  activity at 20 µM: 83%
TrkA; [2]
  activity at 20 µM: 109%
CK1δ
  activity at 20 µM: 89%
CaMKIδ
  activity at 20 µM: 103%
Arg(m)
  activity at 20 µM: 96%
MAPKAP-K2
  activity at 20 µM: 103%

## CN(C)c1cc(-c2ccncc2)c(-c2ccc3ccccc3c2)nn1 [MW108, N, N-dimethyl-6-(naphthalen-2-yl)-5-(pyridin-4-yl)pyridazin-3-amine]
Lck activated
  activity at 20 µM: 70%
MST2
  activity at 20 µM: 98%
Lyn(m)
  activity at 20 µM: 97%
Pyk2
  activity at 20 µM: 106%
PTK5
  activity at 20 µM: 80%
GRK5
  activity at 20 µM: 110%
Tec(h) activated
  activity at 20 µM: 89%
EGFR(L858R)
  activity at 20 µM: 48%
CDK1/cyclinB
  activity at 20 µM: 90%
HIPK2
  activity at 20 µM: 107%
ARK5
  activity at 20 µM: 98%
PASK
  activity at 20 µM: 88%
PKCι
  activity at 20 µM: 92%
Fes
  activity at 20 µM: 111%
PIP4K2α
  activity at 20 µM: 96%
FGFR4
  activity at 20 µM: 89%
HIPK1
  activity at 20 µM: 98%
IRR
  activity at 20 µM: 94%
FGFR1(V561M)
  activity at 20 µM: 90%
Lck
  activity at 20 µM: 62%
WNK3
  activity at 20 µM: 91%
MSK1
  activity at 20 µM: 97%
IGF-1R, activated
  activity at 20 µM: 104%
Hck activated
  activity at 20 µM: 97%
PAK5
  activity at 20 µM: 102%
EphA8
  activity at 20 µM: 95%
Arg
  activity at 20 µM: 95%
EphA4
  activity at 20 µM: 97%
Rsk1
  activity at 20 µM: 93%
GSK3β
  activity at 20 µM: 97%
BTK
  activity at 20 µM: 97%
NEK11
  activity at 20 µM: 108%
PDGFRα
  activity at 20 µM: 106%
PKA
  activity at 20 µM: 74%
NEK6
  activity at 20 µM: 103%
[1]
  activity at 20 µM: 99%
TSSK2
  activity at 20 µM: 101%
Met(Y1248D)
  activity at 20 µM: 93%
cKit(V654A)
  activity at 20 µM: 106%
TrkA
  activity at 20 µM: 91%
CK1δ
  activity at 20 µM: 33%
CaMKIδ
  activity at 20 µM: 97%
Arg(m)
  activity at 20 µM: 86%
MAPKAP-K2
  activity at 20 µM: 103%
